Test: Evaluation of conversion rate to active form in buffer solution (Experimental Example 1)
Type: physicochemical
Settings: for Production rate of Alvocidib / Residual rate: 25 umol/L in buffer solution; for Stability in buffer solution at pH 5: pH 5, 37° C., up to 2 or 3 hours; for Conversion to Alvocidib at pH 7.4: pH 7.4, 37° C., up to 3 hours
In short: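 Conversion to Alvocidib was followed by HPLC over 3 hours at 37° C, with test compounds at 25 umol/L in 50 mM citrate or phosphate buffers spanning pH 5.0–7.4.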

## CC(C)N(CC1CCCCN1)C(=O)Oc1cc(O)c2c(=O)cc(-c3ccccc3Cl)oc2c1[C@H]1CCN(C)C[C@H]1O (stereo partly drawn) [Example 10, 2-(2-chlorophenyl)-5-hydroxy-8-[(3S,4R)-3-hydroxy-1-methylpiperidin-4-yl]-4-oxo-4H-1-benzopyran-7-yl [(piperidin-2-yl)methyl]propan-2-ylcarbamate]
Buffer solution, 37° C.
  Efficiency of conversion to Alvocidib: higher efficiency
pH5.0, 0 hr, 37° C.
  Production rate of Alvocidib: 1.6%
  Residual rate: 90.6%
  Stability in buffer solution at pH 5: stable
  Conversion to Alvocidib at pH 7.4: rapidly converted to Alvocidib
pH5.0, 0.5 hr, 37° C.
  Production rate of Alvocidib: 2.1%
  Residual rate: 90.4%
pH5.0, 1 hr, 37° C.
  Production rate of Alvocidib: 2.5%
  Residual rate: 90.8%
pH5.0, 2 hr, 37° C.
  Production rate of Alvocidib: 3.1%
  Residual rate: 90.1%
pH5.0, 3 hr, 37° C.
  Production rate of Alvocidib: 3.9%
  Residual rate: 89.5%
pH5.5, 0 hr, 37° C.
  Production rate of Alvocidib: 1.6%
  Residual rate: 90.7%
pH5.5, 0.5 hr, 37° C.
  Production rate of Alvocidib: 2.7%
  Residual rate: 90.4%
pH5.5, 1 hr, 37° C.
  Production rate of Alvocidib: 3.6%
  Residual rate: 89.5%
pH5.5, 2 hr, 37° C.
  Production rate of Alvocidib: 5.4%
  Residual rate: 87.9%
pH5.5, 3 hr, 37° C.
  Production rate of Alvocidib: 7.2%
  Residual rate: 86.3%
pH6.0, 0 hr, 37° C.
  Production rate of Alvocidib: 1.7%
  Residual rate: 90.7%
pH6.0, 0.5 hr, 37° C.
  Production rate of Alvocidib: 4.9%
  Residual rate: 88.2%
pH6.0, 1 hr, 37° C.
  Production rate of Alvocidib: 8.1%
  Residual rate: 85.2%
pH6.0, 2 hr, 37° C.
  Production rate of Alvocidib: 14.1%
  Residual rate: 79.4%
pH6.0, 3 hr, 37° C.
  Production rate of Alvocidib: 19.8%
  Residual rate: 74.1%
pH6.5, 0 hr, 37° C.
  Production rate of Alvocidib: 1.9%
  Residual rate: 91.3%
pH6.5, 0.5 hr, 37° C.
  Production rate of Alvocidib: 10.8%
  Residual rate: 82.4%
pH6.5, 1 hr, 37° C.
  Production rate of Alvocidib: 19.4%
  Residual rate: 73.9%
pH6.5, 2 hr, 37° C.
  Production rate of Alvocidib: 34.6%
  Residual rate: 59.6%
pH6.5, 3 hr, 37° C.
  Production rate of Alvocidib: 46.2%
  Residual rate: 47.1%
pH7.0, 0 hr, 37° C.
  Production rate of Alvocidib: 2.2%
  Residual rate: 90.7%
pH7.0, 0.5 hr, 37° C.
  Production rate of Alvocidib: 22.8%
  Residual rate: 70.0%
pH7.0, 1 hr, 37° C.
  Production rate of Alvocidib: 40.0%
  Residual rate: 52.8%
pH7.0, 2 hr, 37° C.
  Production rate of Alvocidib: 63.6%
  Residual rate: 29.6%
pH7.0, 3 hr, 37° C.
  Production rate of Alvocidib: 76.4%
  Residual rate: 0.8%
pH7.4, 0 hr, 37° C.
  Production rate of Alvocidib: 3.1%
  Residual rate: 89.9%
pH7.4, 0.5 hr, 37° C.
  Production rate of Alvocidib: 46.1%
  Residual rate: 46.5%
pH7.4, 1 hr, 37° C.
  Production rate of Alvocidib: 71.5%
  Residual rate: 22.6%
pH7.4, 2 hr, 37° C.
  Production rate of Alvocidib: 87.2%
  Residual rate: 0.9%
pH7.4, 3 hr, 37° C.
  Production rate of Alvocidib: 91.6%
  Residual rate: 0.8%

## CN1CC[C@H](c2c(OC(=O)N(CCF)CC3CCCCN3)cc(O)c3c(=O)cc(-c4ccccc4Cl)oc23)[C@H](O)C1 (stereo partly drawn) [Example 11, 2-(2-chlorophenyl)-5-hydroxy-8-[(3S,4R)-3-hydroxy-1-methylpiperidin-4-yl]-4-oxo-4H-1-benzopyran-7-yl (2-fluoroethyl) [(piperidin-2-yl)methyl]carbamate]
pH5.0, 0 hr, 37° C.
  Production rate of Alvocidib: 0.2%
  Residual rate: 83.2%
  Stability in buffer solution at pH 5: stable
  Conversion to Alvocidib at pH 7.4: rapidly converted to Alvocidib
pH5.0, 0.5 hr, 37° C.
  Production rate of Alvocidib: 0.9%
  Residual rate: 82.7%
pH5.0, 1 hr, 37° C.
  Production rate of Alvocidib: 1.8%
  Residual rate: 81.3%
pH5.0, 2 hr, 37° C.
  Production rate of Alvocidib: 3.3%
  Residual rate: 80.5%
pH5.0, 3 hr, 37° C.
  Production rate of Alvocidib: 4.8%
  Residual rate: 79.1%
pH5.5, 0 hr, 37° C.
  Production rate of Alvocidib: 0.2%
  Residual rate: 83.6%
pH5.5, 0.5 hr, 37° C.
  Production rate of Alvocidib: 2.5%
  Residual rate: 81.8%
pH5.5, 1 hr, 37° C.
  Production rate of Alvocidib: 4.8%
  Residual rate: 79.2%
pH5.5, 2 hr, 37° C.
  Production rate of Alvocidib: 9.4%
  Residual rate: 75.0%
pH5.5, 3 hr, 37° C.
  Production rate of Alvocidib: 14.0%
  Residual rate: 70.2%
pH6.0, 0 hr, 37° C.
  Production rate of Alvocidib: 0.3%
  Residual rate: 83.7%
pH6.0, 0.5 hr, 37° C.
  Production rate of Alvocidib: 8.5%
  Residual rate: 76.0%
pH6.0, 1 hr, 37° C.
  Production rate of Alvocidib: 16.9%
  Residual rate: 66.6%
pH6.0, 2 hr, 37° C.
  Production rate of Alvocidib: 32.6%
  Residual rate: 49.8%
pH6.0, 3 hr, 37° C.
  Production rate of Alvocidib: 39.4%
  Residual rate: 44.8%
pH6.5, 0 hr, 37° C.
  Production rate of Alvocidib: 0.8%
  Residual rate: 81.4%
pH6.5, 0.5 hr, 37° C.
  Production rate of Alvocidib: 23.6%
  Residual rate: 60.4%
pH6.5, 1 hr, 37° C.
  Production rate of Alvocidib: 46.5%
  Residual rate: 35.6%
pH6.5, 2 hr, 37° C.
  Production rate of Alvocidib: 60.2%
  Residual rate: 23.7%
pH6.5, 3 hr, 37° C.
  Production rate of Alvocidib: 62.7%
  Residual rate: 21.4%
pH7.0, 0 hr, 37° C.
  Production rate of Alvocidib: 2.1%
  Residual rate: 80.0%
pH7.0, 0.5 hr, 37° C.
  Production rate of Alvocidib: 53.4%
  Residual rate: 30.1%
pH7.0, 1 hr, 37° C.
  Production rate of Alvocidib: 62.1%
  Residual rate: 22.0%
pH7.0, 2 hr, 37° C.
  Production rate of Alvocidib: 67.0%
  Residual rate: 17.1%
pH7.0, 3 hr, 37° C.
  Production rate of Alvocidib: 71.6%
  Residual rate: 12.4%
pH7.4, 0 hr, 37° C.
  Production rate of Alvocidib: 4.6%
  Residual rate: 79.7%
pH7.4, 0.5 hr, 37° C.
  Production rate of Alvocidib: 68.3%
  Residual rate: 16.2%
pH7.4, 1 hr, 37° C.
  Production rate of Alvocidib: 67.0%
  Residual rate: 16.7%
pH7.4, 2 hr, 37° C.
  Production rate of Alvocidib: 67.9%
  Residual rate: 16.2%
pH7.4, 3 hr, 37° C.
  Production rate of Alvocidib: 67.3%
  Residual rate: 15.9%

## COCCN(CC1CCCCN1)C(=O)Oc1cc(O)c2c(=O)cc(-c3ccccc3Cl)oc2c1[C@H]1CCN(C)C[C@H]1O (stereo partly drawn) [Example 12, 2-(2-chlorophenyl)-5-hydroxy-8-[(3S,4R)-3-hydroxy-1-methylpiperidin-4-yl]-4-oxo-4H-1-benzopyran-7-yl (2-methoxyethyl) [(piperidin-2-yl)methyl]carbamate]
pH5.0, 0 hr, 37° C.
  Production rate of Alvocidib: 0.5%
  Residual rate: 80.7%
  Stability in buffer solution at pH 5: stable
  Conversion to Alvocidib at pH 7.4: rapidly converted to Alvocidib
pH5.0, 0.5 hr, 37° C.
  Production rate of Alvocidib: 1.1%
  Residual rate: 80.3%
pH5.0, 1 hr, 37° C.
  Production rate of Alvocidib: 1.5%
  Residual rate: 79.6%
pH5.0, 2 hr, 37° C.
  Production rate of Alvocidib: 2.3%
  Residual rate: 79.6%
pH5.0, 3 hr, 37° C.
  Production rate of Alvocidib: 3.9%
  Residual rate: 77.3%
pH5.5, 0 hr, 37° C.
  Production rate of Alvocidib: 0.5%
  Residual rate: 80.6%
pH5.5, 0.5 hr, 37° C.
  Production rate of Alvocidib: 1.9%
  Residual rate: 79.9%
pH5.5, 1 hr, 37° C.
  Production rate of Alvocidib: 3.8%
  Residual rate: 77.5%
pH5.5, 2 hr, 37° C.
  Production rate of Alvocidib: 6.9%
  Residual rate: 73.8%
pH5.5, 3 hr, 37° C.
  Production rate of Alvocidib: 9.8%
  Residual rate: 71.2%
pH6.0, 0 hr, 37° C.
  Production rate of Alvocidib: 0.6%
  Residual rate: 80.8%
pH6.0, 0.5 hr, 37° C.
  Production rate of Alvocidib: 6.2%
  Residual rate: 75.4%
pH6.0, 1 hr, 37° C.
  Production rate of Alvocidib: 11.0%
  Residual rate: 70.3%
pH6.0, 2 hr, 37° C.
  Production rate of Alvocidib: 22.5%
  Residual rate: 56.2%
pH6.0, 3 hr, 37° C.
  Production rate of Alvocidib: 26.9%
  Residual rate: 54.0%
pH6.5, 0 hr, 37° C.
  Production rate of Alvocidib: 1.0%
  Residual rate: 80.4%
pH6.5, 0.5 hr, 37° C.
  Production rate of Alvocidib: 16.6%
  Residual rate: 63.8%
pH6.5, 1 hr, 37° C.
  Production rate of Alvocidib: 31.8%
  Residual rate: 39.4%
pH6.5, 2 hr, 37° C.
  Production rate of Alvocidib: 40.5%
  Residual rate: 26.2%
pH6.5, 3 hr, 37° C.
  Production rate of Alvocidib: 52.2%
  Residual rate: 13.4%
pH7.0, 0 hr, 37° C.
  Production rate of Alvocidib: 1.7%
  Residual rate: 80.2%
pH7.0, 0.5 hr, 37° C.
  Production rate of Alvocidib: 33.8%
  Residual rate: 35.8%
pH7.0, 1 hr, 37° C.
  Production rate of Alvocidib: 51.2%
  Residual rate: 15.4%
pH7.0, 2 hr, 37° C.
  Production rate of Alvocidib: 60.2%
  Residual rate: 0.0%
pH7.0, 3 hr, 37° C.
  Production rate of Alvocidib: 62.7%
  Residual rate: 0.0%
pH7.4, 0 hr, 37° C.
  Production rate of Alvocidib: 3.9%
  Residual rate: 77.3%
pH7.4, 0.5 hr, 37° C.
  Production rate of Alvocidib: 51.0%
  Residual rate: 10.8%
pH7.4, 1 hr, 37° C.
  Production rate of Alvocidib: 65.9%
  Residual rate: 0.0%
pH7.4, 2 hr, 37° C.
  Production rate of Alvocidib: 67.3%
  Residual rate: 0.0%
pH7.4, 3 hr, 37° C.
  Production rate of Alvocidib: 63.6%
  Residual rate: 0.0%
